{"source": "patent US12642780B2", "about": "“Methods and compositions to treat and prevent viral infections and acute respiratory distress syndrome” (priority 2020, dated 2026)", "type_in_all_cases": "cell-based, mouse", "key": {"NLRP3 inflammasome": {"test_system": "NLRP3 inflammasome", "assay": "NLRP3 inflammasome activation in LPS-primed BMDM", "conditions": "for restoration of Casp1 activation and IL-1β secretion: metformin treated and ATP-stimulated macrophages, DMNQ 20 μM 16 hrs, MitoParaquat 5 μM 1 hr"}, "BMDM [1]": {"test_system": "BMDM", "assay": "Mitochondrial function in BMDM (TMRM, MitoSOX, cellular ATP)", "conditions": "for mtROS: metformin treated and ATP-stimulated macrophages, DMNQ 20 μM 16 hrs, MitoParaquat 5 μM 1 hr"}, "mtDNA": {"test_system": "mtDNA", "assay": "mtDNA synthesis and cytosolic Ox-mtDNA in BMDM", "conditions": "for restoration of cytoplasmic Ox-mtDNA or mtDNA synthesis: metformin treated macrophages, DMNQ 20 μM 16 hrs, MitoParaquat 5 μM 1 hr", "method": "To image mtDNA synthesis, BMDM were stimulated with LPS ([…]) for 4 hrs in the presence of 10 μM EdU. Cells were then washed twice with sterile PBS and fixed in 4% PFA for 15 min followed by permeabilization with 0.02% Triton X-100 for 10 min. EdU staining was performed using a Click-iT EdU Microplate Assay Kit (Thermo Fisher Scientific). In brief, BMDMs were postfixed in EdU fixative for 5 min, and equal volumes of the EdU reaction cocktail, which was prepared immediately before use, were added to each chamber and left overnight. Primary antibody against the mitochondrial marker Atp5b was included in the EdU reaction cocktail. The next day, the BMDM were washed three times with PBS followed by incubation with secondary Alexa antibodies from Life Technologies or Jackson Immuno Research Laboratories. DAPI was used for nuclear counterstaining.\nTotal DNA was isolated using Allprep DNA/RNA Mini Kit (catalogue 80204, Qiagen) according to manufacturer's instructions. mtDNA was quantified by qPCR using primers specific for the mitochondrial D-loop region, cytochrome c oxidase (COX) or a specific region of mtDNA that is not inserted into nuclear DNA (non-NUMT) (Zhong et al., 2018). Nuclear DNA encoding Teri, 18S ribosomal RNA and B2m was used for normalization.\nCellular fractionation was performed using Mitochondrial Isolation kit (89874, ThermoScientific) according to manufacturer's instructions. Cytosolic mtDNA was analyzed as described (Nakahira et al., 2011). For the measurement of Ox-mtDNA, mtDNA was first purified using Allprep DNA/RNA mini kit (Qiagen) from the cytosolic fraction of BMDM as described above. The 8-OH-dG content of the mtDNA was then quantified using an 8-OHdG quantification kit (ab201734), per manufacturer's instructions."}, "BMDM [2]": {"test_system": "BMDM", "assay": "Cytokine secretion by LPS-stimulated BMDM (ELISA)", "text": "Paired antibodies (capture and detection) and standard recombinant mouse IL-1β (R&D Systems), and TNF and IL-6 (eBioscience) were used to determine mouse cytokine concentrations according to manufacturer's instructions."}, "BMDM [3]": {"test_system": "BMDM", "assay": "Q-PCR quantitation of cytokine mRNAs in LPS-stimulated BMDM", "set-up": "Il6 mRNA induction: dose or concentration left out as unconfirmed", "conditions": "BMDM pretreated with SB202190 or SP600125 for 16 h, LPS", "method": "RNA was extracted using AllPrep DNA/RNA Mini kit, and cDNA was synthesized using SuperScript™ VILO™ cDNA Synthesis Kit. mRNA expression was determined by QPCR in a CFX96 thermal cycler (Biorad) as described (Zhong et al., 2016). Data are presented in arbitrary units and calculated by the 2^(−ΔΔCT) method. Primer sequences were obtained from the NIH qPrimerDepot (http://mouseprimerdepot.nci.nih.gov) and provided by Integrated DNA technologies."}}, "data": [{"molecule": "COC1=C(OC)C(=O)c2ccccc2C1=O", "note": "[DMNQ, 2,3-dimethoxy-1,4-naphtoquinone]", "values": [{"measurement": "restoration of Casp1 activation and IL-1β secretion", "setting": "NLRP3 inflammasome", "value": "neither one restored"}, {"measurement": "mtROS", "setting": "BMDM [1]", "value": "increased"}, {"measurement": "restoration of cytoplasmic Ox-mtDNA or mtDNA synthesis", "setting": "mtDNA", "value": "neither parameter was restored"}]}, {"molecule": "Cc1nc(-c2nc(-c3ccc(OC(F)(F)F)cc3)no2)nn1Cc1cccc(N2CCC(S(C)(=O)=O)CC2)c1", "note": "[IACS-010759]", "values": [{"measurement": "IL-6 secretion", "setting": "BMDM [2]; BMDM, IACS-010759 20 μM 16 hrs", "value": "modest inhibition"}, {"measurement": "TNF secretion", "setting": "BMDM [2]; BMDM, IACS-010759 20 μM 16 hrs", "value": "no effect"}, {"measurement": "IL-1β production and Casp1 and GSMDM cleavage", "setting": "NLRP3 inflammasome; LPS-primed macrophages with NLRP3 activators, IACS-010759 20 μM 16 hrs", "value": "inhibited"}, {"measurement": "response to nigericin compared with other activators", "setting": "NLRP3 inflammasome; LPS-primed macrophages, IACS-010759 20 μM 16 hrs", "value": "not as strongly inhibited"}, {"measurement": "ROS production", "setting": "BMDM [1]; BMDM, IACS-010759 20 μM 16 hrs, MitoSOX", "value": "enhanced"}, {"measurement": "mtDNA synthesis", "setting": "mtDNA; LPS-primed BMDM, IACS-010759 16 hrs", "value": "inhibited"}]}, {"molecule": "Oc1ccc(-c2nc(-c3ccncc3)c(-c3ccc(F)cc3)[nH]2)cc1", "note": "[SB202190]", "values": [{"measurement": "Il6 mRNA induction", "setting": "BMDM [3]", "value": "blocked"}, {"measurement": "IL-6 secretion", "setting": "BMDM [2]; BMDM pretreated with SB202190 or SP600125 for 16 h, LPS", "value": "blocked"}]}, {"molecule": "C[n+]1ccc(-c2cc[n+](CCCCCCCCCC[P+](c3ccccc3)(c3ccccc3)c3ccccc3)cc2)cc1.[I-].[I-].[I-]", "note": "[mitoParaquat]", "values": [{"measurement": "restoration of Casp1 activation and IL-1β secretion", "setting": "NLRP3 inflammasome", "value": "neither one restored"}, {"measurement": "mtROS", "setting": "BMDM [1]", "value": "increased"}, {"measurement": "restoration of cytoplasmic Ox-mtDNA or mtDNA synthesis", "setting": "mtDNA", "value": "neither parameter was restored"}]}]}
